The values below come from US20110059226A1, “METHOD FOR LOADING A MOLECULE INTO A POROUS SUBSTRATE” (priority 2009, published 2011).

What all share (format): physicochemical
Data set [1] in a line: Solubility limit of Ibuprofen in CO2 (I) and CO2 (I) with 5 mol % cosolvent, by visual inspection. To be noted: room temperature, 55±2 bar, 9 hours. How it is done: The solubility of Ibuprofen in CO2 (I) and CO2 (I) with 5 mol % of cosolvent was determined by visual inspection of sample mixtures of the solvent(s) and Ibuprofen at room temperature and 55±2 bar, and the solubility limit was considered to be reached when particles of Ibuprofen were visible.

A short description of data set [2]: Loading of Ibuprofen into mesoporous silica (MCM-41) from liquid carbon dioxide, adsorbed amount measured by TGA. The following applies: for Maximum loaded amount of Ibuprofen in mesoporous silica: pure CO2 (I), 20° C., 55±2 bar. An excerpt: The mesoporous particles were placed in a bag (fabric of polypropene, PP 3333, permeability 105 DIN, Derma AB, Sweden), which was permeable for the solvent and dissolved Ibuprofen molecules but kept the mesoporous particles in one place in the reactor (see below). The amount of mesoporous particles was 0.1 g in all experiments, while the amount of Ibuprofen was varied for different loading experiments. The particles in the bag and Ibuprofen crystals (thoroughly ground in a mortar before use) were placed in a glass beaker (400 ml), which was placed in an in-house built stainless steel reactor (1.7 L) with two sapphire glass windows. The reactor was first pressurized with carbon dioxide and thereafter 200 ml CO2 (I) or CO2 (I)+5 mol-% cosolvent was introduced into the glass beaker at 20° C. and 55±2 bar. […] After the loading period (15 minutes to 18 hours), the reactor was depressurized and the bag containing the mesoporous particles with Ibuprofen was retrieved. The samples were characterized with TGA using a TGA 7 instrument (Perkin Elmer Inc., USA). The temperature program used consisted of an initial part with a heating rate of 20° C./min from 20° C. to 95° C., followed by an isothermal pause for 60 minutes at 95° C., and finally heating from 95° C. up to 800° C. at a heating rate of 2° C./min. All TGA measurements were performed under 20 ml/min flow of N2 gas. […] The loading time and concentration of Ibuprofen in the CO2 (I) was varied in the experiments and each experiment is represented by one point in the graph in FIG. 1.

Data set [3] is described as follows: Release of Ibuprofen from mesoporous silica into water. To be noted: within one minute of the mesoporous silica being added to water. An excerpt:
Fifty percent of the Ibuprofen is released into water within one minute of the mesoporous silica being added to water. This is desirable as a quicker release for an analgesic drug will result in faster relief for the individual taking the analgesic drug.

Consider `CC(C)Cc1ccc(C(C)C(=O)O)cc1` (stereo not shown) [Ibuprofen], for which the Solubility limit is 1.5-2.0 wt-% in data set [1] (Solvent CO2 (I) + acetone (5 mol %)), 1.0-1.5 wt-% in data set [1] (Solvent CO2 (I) + cyclohexane (5 mol %)), over 2.0 wt-% in data set [1] (Solvent CO2 (I) + methanol (5 mol %)) and 0.20-0.25 wt-% in data set [1] (Solvent CO2 (I)). Also, the “Maximum adsorbed amount of Ibuprofen in the mesoporous particles” value is “approximately 50 mg Ibuprofen/g SiO2” in data set [2] (0.34 wt-% Ibuprofen in CO2 (I) + acetone (5 mol-%)), “approximately 200 mg Ibuprofen/g SiO2” in data set [2] (0.34 wt-% Ibuprofen in CO2 (I) + cyclohexane (5 mol-%)) and “approximately 50 mg Ibuprofen/g SiO2” in data set [2] (0.34 wt-% Ibuprofen in CO2 (I) + methanol (5 mol-%)). In addition, the “Maximum loaded amount of Ibuprofen in mesoporous silica” value is “much lower loading” in data set [2] (Ibuprofen concentration below the solubility limit (0.04 wt-%)) and about 300 mg Ibuprofen/g SiO2 in data set [2] (solution saturated with Ibuprofen (0.34 or 0.90 wt-% nominal), 7 to 12 hours). The “Ibuprofen released into water from mesoporous silica” value in data set [3] is recorded as “Fifty”.
